Experiments:
[1] = system: Human immunodeficiency virus 1; experiment: Ratio of Ki for HIV1 protease V82A mutant to Ki for wild type HIV1 protease
[2] = molecular target: Human immunodeficiency virus type 1 protease (Human immunodeficiency virus 1, UniProt Q72874, V82A); experiment: Binding affinity to HIV1 protease V82A mutant
[3] = molecular target: Protease (Human immunodeficiency virus 1, UniProt Q9YQ12); experiment: Binding affinity to HIV1 protease
Chain of Protease (Q9YQ12 whole entry): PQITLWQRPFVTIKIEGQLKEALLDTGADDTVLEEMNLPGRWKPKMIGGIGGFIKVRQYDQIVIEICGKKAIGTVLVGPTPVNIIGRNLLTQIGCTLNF

Structure (SMILES) | Ratio Ki [1] | Ki [2] | Ki [3]
CC(C)[C@H](NC(=O)N(C)Cc1ccccn1)C(=O)N[C@@H](CC1CCCCC1)[C@H](O)[C@@H](O)[C@H](CC1CCCCC1)NC(=O)[C@@H](NC(=O)N(C)Cc1ccccn1)C(C)C | 2 | 12 nM | 6 nM
CC(C)[C@H](NC(=O)N(C)Cc1ccccn1)C(=O)N[C@@H](Cc1ccccc1)[C@H](O)[C@@H](O)[C@H](Cc1ccccc1)NC(=O)[C@@H](NC(=O)N(C)Cc1ccccn1)C(C)C [A-76928] | 7 | 9 nM | 1.3 nM
CC(C)[C@H](NC(=O)N(C)Cc1ccccn1)C(=O)N[C@@H](Cc1ccccc1)[C@H](O)[C@@H](O)[C@H](CC1CCCCC1)NC(=O)[C@@H](NC(=O)N(C)Cc1ccccn1)C(C)C | 4 | – | 3.2 nM

— ChEMBL document CHEMBL1143243, “Design, synthesis, evaluation, and crystallographic-based structural studies of HIV-1 protease inhibitors with reduced response to the V82A mutation” (J Med Chem, 2008)
